From patent US9630977B2, “Cephalosporin derivatives and pharmaceutical compositions thereof” (Legochem Biosciences, Inc., priority 2011, dated 2017)
≈ marks a conversion by molar mass, not a printed value.

Columns and labels:
[1] = test system: P. aeruginosa R1023; assay: In vivo efficacy, whole-body infected mouse model, Ceftazidime-resistant bacteria;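 as to Survival rate: each column one dose of 5 10 20 or 40 mg/kg given sc at 1 h and 4 h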; parameters: species or system ICR mouse; conditions: for ED50: Pseudomonas aeruginosa, sc, Probit method, subcutaneous, mouse infected by Ceftazidime-resistant P. aeruginosa R1023; for Survival rate: subcutaneous 1 h and 4 h after infection, P. aeruginosa R1023 (2 × 10^6 CFU/mouse), four days
Method: (§1) Pharmaceutical efficacy of the cephalosporin derivative compounds according to the present invention was evaluated in a whole-body infected mouse model. Tables 3 and 4 show survival rate and ED50 values for the two compounds with excellent antibacterial activity with regard to an infected mouse by a drug-sensitive bacteria and a drug-resistant bacteria.
(§2) Test animals: 3 week old male ICR mouse, weight 18˜22 g; 5 mice/group.
(§3) Lab conditions: Temperature of 23±2° C.; humidity of 55±20%.
(§4) Administration method: Inducing whole-body infection by bacterial solution followed by subcutaneous injection (0.2 mL) after 1 hour and 4 hours.
(§5) Test method: Cultured bacteria were diluted with 0.9% NaCl to prepare a bacterial solution having a concentration that is 5 to 10 times of […]. 0.5 mL of bacterial solution was injected through abdominal cavity to induce whole-body infection. Test compounds were administered in four different amounts, which were designed considering in vitro MIC values of the test bacteria. After 1 hour and 4 hours, the four different amounts of the test compounds were subcutaneously administered. Survival rates were measured for four days and ED50 values were calculated according to the Probit method.

[2] = test system: P. aeruginosa 1912E; assay: In vivo efficacy, whole-body infected mouse model, Ceftazidime-sensitive bacteria; parameters: species or system ICR mouse; conditions: P. aeruginosa 1912E (2 × 10^6CFU/mouse); for Survival rate: four days
Method: as §1, §2, §3, §4, §5

[3] = test system: A. baumannii 52; assay: In vitro antibacterial activity test (broth microdilution); assay type: cell-based; conditions: Acinetobacter baumannii; A. baumannii 52; read-out: MIC90
How it was run: (§6)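 Clinical isolates; CLSI broth microdilution; MIC90 in ug/mL; final compound range 0.0626–128 ug/mL; DMSO 2.5% (V/V) final.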

[4] = test system: K. pneumoniae β14; assay: as above; assay type: cell-based; conditions: Klebsiella pneumoniae, read-out: MIC90
How it was run: as §6

[5] = test system: P. aeruginosa 1912E; assay: as above; assay type: cell-based; conditions: Pseudomonas aeruginosa, 1912E, read-out: MIC90
How it was run: as §6

[6] = test system: A. baumannii 49; assay: as above; assay type: cell-based; conditions: Acinetobacter baumannii; A. baumannii 49; read-out: MIC90
How it was run: as §6

[7] = test system: A. baumannii 46; assay: as above; assay type: cell-based; conditions: Acinetobacter baumannii; A. baumannii 46; read-out: MIC90
How it was run: as §6

[8] = test system: K. pneumoniae β13; assay: as above; assay type: cell-based; conditions: Klebsiella pneumoniae, K. pneumoniae β13; read-out: MIC90
How it was run: as §6

[9] = test system: P. aeruginosa 40; assay: as above; assay type: cell-based; conditions: Pseudomonas aeruginosa, 40, P. aeruginosa 40; read-out: MIC90
How it was run: as §6

[10] = test system: K. pneumoniae β9; assay: as above; assay type: cell-based; conditions: Klebsiella pneumoniae, K. pneumoniae β9; read-out: MIC90
How it was run: as §6

[11] = test system: P. aeruginosa 37; assay: as above; assay type: cell-based; conditions: Pseudomonas aeruginosa, 37, P. aeruginosa 37; read-out: MIC90
How it was run: as §6

[12] = test system: E. coli AG100; assay: as above; assay type: cell-based; conditions: Escherichia coli, AG100, E. coli AG100; read-out: MIC90
How it was run: as §6

[13] = test system: K. pneumoniae β10; assay: as above; assay type: cell-based; conditions: Klebsiella pneumoniae; K. pneumoniae β10; read-out: MIC90
How it was run: as §6

[14] = test system: P. aeruginosa 43; assay: as above; assay type: cell-based; conditions: Pseudomonas aeruginosa; P. aeruginosa 43; read-out: MIC90
How it was run: as §6

[15] = test system: E. cloacae β19; assay: as above; assay type: cell-based; conditions: Enterobacter cloacae, read-out: MIC90
How it was run: as §6

[16] = test system: M. catarrhalis 2524; assay: as above; assay type: cell-based; conditions: Moraxella catarrhalis; M. catarrhalis 2524; read-out: MIC90
How it was run: as §6

[17] = test system: E. coli β4; assay: as above; assay type: cell-based; conditions: Escherichia coli, read-out: MIC90
How it was run: as §6

[18] = test system: K. pneumoniae β11; assay: as above; assay type: cell-based; conditions: Klebsiella pneumoniae; K. pneumoniae β11; read-out: MIC90
How it was run: as §6

[19] = test system: K. pneumoniae 2011E; assay: as above; assay type: cell-based; conditions: Klebsiella pneumoniae, 2011E, K. pneumoniae 2011E; read-out: MIC90
How it was run: as §6

[20] = test system: A. calcoaceticus ATCC15473; assay: as above; assay type: cell-based; conditions: Acinetobacter calcoaceticus; A. calcoaceticus ATCC15473; read-out: MIC90
How it was run: as §6

[21] = test system: P. aeruginosa 6065Y; assay: as above; assay type: cell-based; conditions: Pseudomonas aeruginosa, read-out: MIC90
How it was run: as §6

[22] = test system: K. pneumoniae (38 clinical isolates); assay: Antibacterial activity on representative drug-resistance bacteria: number of clinical isolates per MIC value; assay type: cell-based; conditions: K. pneumomiae (N = 38)
Method: (§7) The in vitro antibacterial activity was evaluated by measuring MIC90 (ug/mL) of each of the compounds of Examples 1 to 68, which is defined as the lowest concentration of an antibiotic that will inhibit the visible growth of 90% of microorganisms after incubation as compared with a control group to which the antibiotic is not treated. MIC90 values were measured by the broth microdilution method developed by the Clinical and Laboratory Standards Institute (CLSI) (see CLSI M7-A5, Methods for Dilution Antimicrobial Susceptibility Test for Bacteria that Grow Aerobically-Fifth Edition (2000): CLSI, Villanova, Pa.).
(§8) Test compounds each (the cephalosporin derivative compounds prepared in Examples 1 to 68) were dissolved in DMSO at the concentration of 10,240 ug/mL, were diluted by two fold with DMSO, and then were diluted by twenty fold with sterilized distilled water. The final concentration in the antibacterial activity test was in the range of […] to 128 ug/mL, and the final concentration of DMSO used as an adjuvant was 2.5% (V/V).

[23] = test system: A. baumannii (6 clinical isolates); assay: as above; assay type: cell-based; conditions: A. baumanni (N = 6)
Method: as §7, §8

[24] = test system: P. aeruginosa (16 clinical isolates); assay: as above; assay type: cell-based; conditions: P. aeruginosa (N = 16)
Method: as §7, §8

CC(C)(O/N=C(\C(=O)N[C@@H]1C(=O)N2C(C(=O)[O-])=C(C[n+]3ccccc3)CS[C@H]12)c1csc(N)n1)C(=O)O [Ceftazidime, reference compound]
ED50 [1]: 640 mg/kg | Survival rate ([1]; administered amount 5 mg/kg): 0% | Survival rate ([1]; administered amount 10 mg/kg): 20% | Survival rate ([1]; administered amount 20 mg/kg): 20% | Survival rate ([1]; administered amount 40 mg/kg): 20% | Survival rate ([2]; 2.5 mg/kg subcutaneous after 1 hour and 4 hours): 40% | Survival rate ([2]; 5 mg/kg subcutaneous after 1 hour and 4 hours): 80% | Survival rate ([2]; 10 mg/kg subcutaneous after 1 hour and 4 hours): 100% | Survival rate ([2]; 20 mg/kg subcutaneous after 1 hour and 4 hours): 100% | ED50 ([2]; Pseudomonas aeruginosa, sc, subcutaneous, Probit method): 2.5 mg/kg | MIC90 [3]: > 64 µg/mL | MIC90 [4]: 64 µg/mL (≈ 117 µM) | MIC90 [5]: 1 µg/mL (≈ 1.83 µM) | MIC90 [6]: > 64 µg/mL | MIC90 [7]: 4 µg/mL (≈ 7.32 µM) | MIC90 [8]: 32 µg/mL (≈ 58.5 µM) | MIC90 [9]: 4 µg/mL (≈ 7.32 µM) | MIC90 [10]: 16 µg/mL (≈ 29.3 µM) | MIC90 [11]: 64 µg/mL (≈ 117 µM) | MIC90 [12]: 0.5 µg/mL (≈ 0.915 µM) | MIC90 [13]: 32 µg/mL (≈ 58.5 µM) | MIC90 [14]: 16 µg/mL (≈ 29.3 µM) | MIC90 [15]: 32 µg/mL (≈ 58.5 µM) | MIC90 [16]: < 0.0625 µg/mL | MIC90 [17]: 8 µg/mL (≈ 14.6 µM) | MIC90 [18]: 64 µg/mL (≈ 117 µM) | MIC90 [19]: 1 µg/mL (≈ 1.83 µM) | MIC90 [20]: 1 µg/mL (≈ 1.83 µM) | MIC90 [21]: 32 µg/mL (≈ 58.5 µM) | number of clinical isolates that showed the respective MIC value ([22]; MIC 0.5 ug/mL): 2 | number of clinical isolates that showed the respective MIC value ([22]; MIC 4 ug/mL): 1 | number of clinical isolates that showed the respective MIC value ([22]; MIC 16 ug/mL): 3 | number of clinical isolates that showed the respective MIC value ([22]; MIC >16 ug/mL): 32 | number of clinical isolates that showed the respective MIC value ([23]; MIC >16 ug/mL): 6 | number of clinical isolates that showed the respective MIC value ([24]; MIC 2 ug/mL): 1 | number of clinical isolates that showed the respective MIC value ([24]; MIC 4 ug/mL): 2 | number of clinical isolates that showed the respective MIC value ([24]; MIC 8 ug/mL): 1 | number of clinical isolates that showed the respective MIC value ([24]; MIC 16 ug/mL): 1 | number of clinical isolates that showed the respective MIC value ([24]; MIC >16 ug/mL): 11

C[C@@H](O)[C@H]1C(=O)N2C(C(=O)O)=C(S[C@@H]3CN[C@H](CNS(N)(=O)=O)C3)[C@H](C)[C@H]12 [Doripenem, reference compound]
ED50 [1]: 28 mg/kg | Survival rate ([1]; administered amount 5 mg/kg): 0% | Survival rate ([1]; administered amount 10 mg/kg): 20% | Survival rate ([1]; administered amount 20 mg/kg): 20% | Survival rate ([1]; administered amount 40 mg/kg): 80% | number of clinical isolates that showed the respective MIC value ([22]; MIC 0.0625 ug/mL): 1 | number of clinical isolates that showed the respective MIC value ([22]; MIC 0.125 ug/mL): 6 | number of clinical isolates that showed the respective MIC value ([22]; MIC 0.25 ug/mL): 3 | number of clinical isolates that showed the respective MIC value ([22]; MIC 0.5 ug/mL): 5 | number of clinical isolates that showed the respective MIC value ([22]; MIC 1 ug/mL): 6 | number of clinical isolates that showed the respective MIC value ([22]; MIC 2 ug/mL): 5 | number of clinical isolates that showed the respective MIC value ([22]; MIC 8 ug/mL): 4 | number of clinical isolates that showed the respective MIC value ([22]; MIC 16 ug/mL): 2 | number of clinical isolates that showed the respective MIC value ([22]; MIC <0.0625 ug/mL): 6 | number of clinical isolates that showed the respective MIC value ([23]; MIC 16 ug/mL): 1 | number of clinical isolates that showed the respective MIC value ([23]; MIC >16 ug/mL): 5 | number of clinical isolates that showed the respective MIC value ([24]; MIC 4 ug/mL): 1 | number of clinical isolates that showed the respective MIC value ([24]; MIC 8 ug/mL): 1 | number of clinical isolates that showed the respective MIC value ([24]; MIC 16 ug/mL): 5 | number of clinical isolates that showed the respective MIC value ([24]; MIC >16 ug/mL): 9
